Data taken from patent US20090286816A1, “MODULATORS OF METABOLISM AND THE TREATMENT OF DISORDERS RELATED THERETO” (ARENA PHARMACEUTICALS, INC., priority 2006, published 2009).
Where two headings read alike, the source gives them in different places.

Legend:
[1] = Rat dose-range PK study (dose escalation pharmacokinetics); assay type: in vivo; details: for AUC(0-t): male, SD, plasma, PO, read-out: AUC24 hr
Method: Male SD rats (250-300 g) were purchased from Charles River Laboratory; upon receipt, animals were placed under light-dark cycle (6:30 am-6:30 pm lights on). They were allowed ad libitum access to water and 4 pieces of food daily (Purina Meals Rodent Diet, Product Number 5001).
Compound formulations were prepared as following: The IV injection formulation was prepared in 20% hydroxypropyl-beta-cyclodextrin with concentration of 0.667 mg/mL. […] The dosing volume for IV injection was 3 mL/Kg and for PO administration was 10 mL/Kg. Four rats were used for each dose group. […]
All rats (4 rats per group, housed individually) were fasted overnight prior to in-life phase. On the next morning, rats were received an IV (via tail vein injection) injection or gavage dose of compound starting at 8 am (IV) and 9 am (PO). Next, each rat were orbital bled at 0.085, 0.25, 0.5, 1, 2, 4, 6, 8, and 24 hr (IV) or 0.5, 1, 2, 4, 6, 8, and 24 hr (PO) to collect blood samples for PK analysis.
The blood samples were collected via orbital bleeding into tubes containing EDTA, 0.25 mL blood each time. These samples were put on ice and within 2 hours plasma was prepared by centrifugation at 3,000 rpm for 30 min at 4° C. 100 μl of plasma were transferred into a 96-tube box for PK analysis.
Plasma samples were prepared as follows. Two hundred microliters of acetonitrile containing internal standard was added to 100 μL of plasma to precipitate proteins. Samples were centrifuged at 3000 g for 5 minutes and supernatant removed for analysis by LC-MS-MS. Calibration standards and quality control samples were prepared by adding a known volume of standard stock solution (50% methanol, 50% H2O) directly into blank plasma and treated identically to collected plasma samples. Calibration standards were typically prepared in the range of 2.0 ng/mL to 110 μg/mL with linear regression for quantitation. These sample preparation steps were automated using a liquid handling workstation (Tomtec Quadra 96) in the 96-well format. Reversed phase LC-MS-MS analysis was performed using either multiple reaction or selected ion monitoring for detection of characteristic ions for each drug candidate and the internal standard used was propranolol for positive ions or chloramphenicol for negative ions.
Results were calculated by noncompartmental analysis using WinNonlin Pro version 3.1 based on plasma concentration-time profiles for individual animals. Plasma levels were determined as described above and the oral and intravenous area under the concentration vs. time curve (AUC was calculated using the linear trapezoidal rule up to the last measurable concentration and was then extrapolated to infinity) were compared to determine the % bioavailability (% F) by the following formula: Dose (IV)*AUC (oral)/Dose (oral)*AUC (IV).
There may be significant variation within the individual animals and the analytical method and that variation was evidenced by the % CV. AUMC was the first statistical moment of the AUC and was used to calculate the mean residence time (MRT=AUMC/AUC), which was the average time the compound was in the animal. The Cmax represented the maximum concentration observed, the Tmax was the time to reach that maximum concentration and the T1/2 was the calculated terminal half-life of the compound in plasma using the slope of a log concentration vs time plot if there were sufficient elimination phase data points (at least three data points in the terminal phase excluding the Cmax). Systemic clearance (CL=Dose(IV)/AUC(IV)) was the volume of fluid (containing compound) from which compound was removed completely per unit time. Volume of distribution at steady state (Vss=CL*MRT) was the extent of distribution of a drug from the plasma to the tissues at steady state.

Male Sprague Dawley rats = test: Oral glucose tolerance test (oGTT) in rats; assay type: in vivo, rat; details: fasted male SD rats, p.o. 30 min before dextrose 3 g/kg, mean of six animals, dose of the group not stated (0.3, 3 or 30 mg/kg tested)
Method: Male Sprague Dawley rats (Harlan, San Diego, Calif.) weighing approximately 350-375 g were fasted for 16 hours and randomly grouped (n=6) to receive a RUP3 agonist at 0.3, 3 or 30 mg/kg. Compounds were delivered orally via a gavage needle (p.o., volume 2 mL/kg). At time 0, levels of blood glucose were assessed using a glucometer (Accu-Chek Advantage, Roche Diagnostics), and rats were administered either vehicle (20% hydroxypropyl-beta-cyclodextrin) or test compound. Thirty minutes after administration of test compound, levels of blood glucose were again assessed, and rats were administered dextrose orally at a dose of 3 g/kg. Blood glucose measurements were then taken 30 min, 60 min, and 120 min after this time.

RUP3 receptor [2] = target: T1, RUP3 receptor (Homo sapiens, UniProt Q8TDV5); test: RUP3 dose response in melanophores (human receptor); assay type: cell-based
T1 construct: expressed in transfected cells; host or cells: melanophores (cultured per Potenza and Lerner 1992), electroporated
T1 sequence (Q8TDV5 1-335): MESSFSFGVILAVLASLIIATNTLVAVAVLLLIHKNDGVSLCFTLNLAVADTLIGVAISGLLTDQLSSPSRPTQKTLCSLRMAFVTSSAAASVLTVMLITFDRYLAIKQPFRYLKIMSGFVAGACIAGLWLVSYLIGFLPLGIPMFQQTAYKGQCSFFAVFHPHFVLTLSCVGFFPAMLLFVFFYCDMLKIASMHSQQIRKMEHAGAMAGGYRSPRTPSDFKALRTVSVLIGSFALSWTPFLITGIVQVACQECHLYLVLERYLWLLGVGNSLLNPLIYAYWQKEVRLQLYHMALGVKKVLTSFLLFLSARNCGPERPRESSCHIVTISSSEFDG
Method: (§1) Melanophores are maintained in culture as reported by Potenza, M. N. and Lerner, M. R., in Pigment Cell Research, Vol. 5, 372-378, 1992 and transfected with the RUP3 expression vector (pCMV) using electroporation. Following electroporation, the transfected cells are plated into 96 well plates for the assay. The cells are then allowed to grow for 48 hours in order to both recover from the electroporation procedure and attain maximal receptor expression levels. On the assay day, the growth medium on the cells is replaced with serum-free buffer containing 10 nM melatonin. The melatonin acts via an endogenous Gi-coupled GPCR in the melanophores to lower intracellular cAMP levels. In response to lowered cAMP levels, the melanophores translocate their pigment to the center of the cell. The net effect of this is a significant decrease in the absorbance reading of the cell monolayer in the well, measured at […]. After a 1-hour incubation in melatonin, the cells become completely pigment-aggregated. At this point a baseline absorbance reading is collected. Serial dilutions of test compounds are then added to the plate and compounds that stimulate RUP3 produce increases in intracellular cAMP levels. […] The measured increase in absorbance compared to the baseline reading allows one to quantitate the degree of receptor stimulation and plot a dose-response curve.

RUP3 receptor [3] = target: T2, RUP3 receptor (Canis lupus familiaris, UniProt A0A8I3QZL6); test: RUP3 dose response in melanophores (dog receptor); assay type: cell-based
T2 sequence (A0A8I3QZL6 1-335): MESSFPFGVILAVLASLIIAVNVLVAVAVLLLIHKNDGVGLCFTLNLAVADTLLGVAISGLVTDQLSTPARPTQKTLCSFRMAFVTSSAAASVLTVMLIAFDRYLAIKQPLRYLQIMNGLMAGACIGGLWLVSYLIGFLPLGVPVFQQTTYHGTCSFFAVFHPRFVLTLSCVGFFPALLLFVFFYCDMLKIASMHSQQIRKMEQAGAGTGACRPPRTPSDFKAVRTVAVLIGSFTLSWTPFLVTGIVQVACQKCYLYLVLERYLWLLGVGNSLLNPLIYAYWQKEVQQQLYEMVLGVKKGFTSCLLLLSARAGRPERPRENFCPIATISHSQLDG
Method: as §1

RUP3 receptor [4] = target: T3, RUP3 receptor (Mus musculus, UniProt Q7TQP3); test: RUP3 dose response in melanophores (mouse receptor); assay type: cell-based
T3 construct: expressed in transfected cells; host or cells: melanophores (cultured per Potenza and Lerner 1992), electroporated
T3 sequence (Q7TQP3 1-335): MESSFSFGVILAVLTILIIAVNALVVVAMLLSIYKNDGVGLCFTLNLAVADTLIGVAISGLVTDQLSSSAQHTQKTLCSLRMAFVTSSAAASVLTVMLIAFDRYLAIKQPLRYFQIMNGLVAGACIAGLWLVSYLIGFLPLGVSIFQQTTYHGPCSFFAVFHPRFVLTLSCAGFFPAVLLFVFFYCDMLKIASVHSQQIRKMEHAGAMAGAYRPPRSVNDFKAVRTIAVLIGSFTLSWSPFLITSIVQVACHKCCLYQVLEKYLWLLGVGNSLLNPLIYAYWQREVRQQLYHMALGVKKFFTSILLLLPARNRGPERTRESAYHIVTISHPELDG
Method: as §1

RUP3 receptor [5] = target: T4, RUP3 receptor (Rattus norvegicus, UniProt Q7TQN8); test: RUP3 dose response in melanophores (rat receptor); assay type: cell-based
T4 construct: expressed in transfected cells; host or cells: melanophores (cultured per Potenza and Lerner 1992), electroporated
T4 sequence (Q7TQN8 1-468): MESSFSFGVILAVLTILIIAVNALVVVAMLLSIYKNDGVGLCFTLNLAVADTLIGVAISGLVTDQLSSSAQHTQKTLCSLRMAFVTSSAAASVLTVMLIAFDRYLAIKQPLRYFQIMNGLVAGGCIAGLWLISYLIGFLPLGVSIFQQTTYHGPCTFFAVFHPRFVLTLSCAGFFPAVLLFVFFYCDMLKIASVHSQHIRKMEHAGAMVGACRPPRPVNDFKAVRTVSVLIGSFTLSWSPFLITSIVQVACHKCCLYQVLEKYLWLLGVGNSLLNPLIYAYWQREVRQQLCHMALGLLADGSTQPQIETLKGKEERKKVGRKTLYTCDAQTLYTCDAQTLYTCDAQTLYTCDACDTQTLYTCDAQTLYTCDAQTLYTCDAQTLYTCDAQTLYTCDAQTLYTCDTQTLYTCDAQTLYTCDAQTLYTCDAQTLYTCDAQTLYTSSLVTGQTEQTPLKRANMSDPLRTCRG
Method: as §1

AUC(0-t) ([1]; dose 30 mg)	AUC(0-t) ([1]; dose 300 mg)	AUC(0-t) ([1]; dose 3 mg)	Compound	further results
6470 ng·h/mL	33800 ng·h/mL	1660 ng·h/mL	COc1c(Nc2ccc(S(C)(=O)=O)nc2C)ncnc1OC1CCN(c2nc(C(C)C)no2)CC1 [Compound G, {6-[1-(3-Isopropyl-[1,2,4]oxadiazol-5-yl)-piperidin-4-yloxy]-5-methoxy-pyrimidin-4-yl}-(6-methanesulfonyl-2-methyl-pyridin-3-yl)-amine]	–
79800 ng·h/mL	286000 ng·h/mL	3590 ng·h/mL	COc1c(Nc2ccc(-n3cncn3)nc2C)ncnc1OC1CCN(C(=O)OC(C)C)CC1 [Compound of Formula (I), 4-[5-Methoxy-6-(2-methyl-6-[1,2,4]triazol-1-yl-pyridin-3-ylamino)-pyrimidin-4-yloxy]-piperidine-1-carboxylic acid isopropyl ester]	mean percent inhibition of glucose excursion (Male Sprague Dawley rats): 60%; EC50 (RUP3 receptor [2]): 2 nM; EC50 (RUP3 receptor [3]): 4 nM; EC50 (RUP3 receptor [4]): 57 nM; EC50 (RUP3 receptor [5]): 81 nM; dose escalation pharmacokinetics (AUC vs dose) ([1]; PO 3, 30, 300 mg/Kg, FIG. 1): essentially linear

Second part, the compound before the results:

Compound	AUC(0-t) ([1]; dose 30 mg)	AUC(0-t) ([1]; dose 300 mg)	AUC(0-t) ([1]; dose 3 mg)	further results
CC(C)OC(=O)N1CCC(Oc2ncnc3c2cnn3-c2ccc(S(C)(=O)=O)cc2F)CC1 [Compound A, 4-[1-(2-Fluoro-4-methanesulfonyl-phenyl)-1H-pyrazolo[3,4-d]pyrimidin-4-yloxy]-piperidine-1-carboxylic acid isopropyl ester]	9930 ng·h/mL	97000 ng·h/mL	–	AUC(0-t) ([1]; dose 10 mg): 2590 ng·h/mL; AUC(0-t) ([1]; dose 100 mg): 133000 ng·h/mL; AUC(0-t) ([1]; dose 1000 mg): 377000 ng·h/mL
Cc1c(Nc2ccc(S(C)(=O)=O)cc2F)ncnc1OC1CCN(c2nc(C(C)C)no2)CC1 [Compound B, (2-Fluoro-4-methanesulfonyl-phenyl)-{6-[1-(3-isopropyl-[1,2,4]oxadiazol-5-yl)-piperidin-4-yloxy]-5-methyl-pyrimidin-4-yl}-amine]	5990 ng·h/mL	11000 ng·h/mL	2120 ng·h/mL	–
COc1c(Nc2ccc(S(C)(=O)=O)nc2C)ncnc1OC1CCN(C(=O)OC(C)C)CC1 [Compound C, 4-[6-(6-Methanesulfonyl-2-methyl-pyridin-3-ylamino)-5-methoxy-pyrimidin-4-yloxy]-piperidine-1-carboxylic acid isopropyl ester]	65900 ng·h/mL	419000 ng·h/mL	14900 ng·h/mL	–
COc1c(Nc2cnc(S(C)(=O)=O)cc2C)ncnc1OC1CCN(C(=O)OC(C)C)CC1 [Compound D, 4-[6-(6-Methanesulfonyl-4-methyl-pyridin-3-ylamino)-5-methoxypyrimidin-4-yloxy]-piperidine-1-carboxylic acid isopropyl ester]	29400 ng·h/mL	54700 ng·h/mL	5600 ng·h/mL	–
Cc1nc(S(C)(=O)=O)ccc1Nc1ncnc(OC2CCN(C(=O)OC(C)C)CC2)c1C [Compound E, 4-[6-(6-methanesulfonyl-2-methyl-pyridin-3-ylamino)-5-methyl-pyrimidin-4-yloxy]-piperidine-1-carboxylic acid isopropyl ester]	55900 ng·h/mL	515000 ng·h/mL	4730 ng·h/mL	–
